Assay results as given in US7723355B2, “7,8-dihydro-1,6-naphthyridin-5(6H)-ones and related bicyclic compounds as inhibitors of dipeptidyl peptidase IV and methods” (Bristol-Myers Squibb Company, priority 2006, dated 2010).
pKi: −log10 of the molar value. Structures can show the parent of a compound that is named as a salt.

Biological target: T1, human DPP-4 (Homo sapiens, UniProt P27487)
T1 construct: during isolation the entire transmembrane domain (including His tag) is removed by proteases present in the CHO cells; His tag (enterokinase-cleavable, from pcDNA4/HisMax) (N, cleaved yes); made in house
T1 sequence (P27487 29-766 limits assumed): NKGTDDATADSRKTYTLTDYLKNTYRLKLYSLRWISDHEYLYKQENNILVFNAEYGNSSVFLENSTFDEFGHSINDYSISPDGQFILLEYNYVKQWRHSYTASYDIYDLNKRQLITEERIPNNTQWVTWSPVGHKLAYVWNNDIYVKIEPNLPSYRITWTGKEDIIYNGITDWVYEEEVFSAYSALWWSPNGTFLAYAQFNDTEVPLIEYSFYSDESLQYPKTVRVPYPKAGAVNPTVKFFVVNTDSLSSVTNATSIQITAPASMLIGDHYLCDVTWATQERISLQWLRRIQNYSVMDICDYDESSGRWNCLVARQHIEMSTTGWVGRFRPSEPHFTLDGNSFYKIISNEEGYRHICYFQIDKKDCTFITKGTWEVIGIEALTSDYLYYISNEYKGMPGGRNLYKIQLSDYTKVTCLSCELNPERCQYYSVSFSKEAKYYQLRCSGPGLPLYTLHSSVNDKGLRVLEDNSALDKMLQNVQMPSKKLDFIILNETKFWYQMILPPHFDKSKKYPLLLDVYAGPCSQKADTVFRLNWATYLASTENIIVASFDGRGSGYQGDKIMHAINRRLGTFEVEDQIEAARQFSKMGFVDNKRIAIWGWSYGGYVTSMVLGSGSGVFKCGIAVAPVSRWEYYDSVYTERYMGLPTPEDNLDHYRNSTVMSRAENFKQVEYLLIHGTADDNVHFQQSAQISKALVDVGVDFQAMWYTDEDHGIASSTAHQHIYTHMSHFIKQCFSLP
Test: DPP-4 inhibition assay (cleavage of pseudosubstrate Gly-Pro-pNA, absorbance at 405 nm)
Assay type: biochemical
Settings: recombinant human DPP-4, steady state, Gly-Pro-pNA 120 or 1000 μM, pH 7.4, 40 min preincubation; IC50 converted to Ki assuming competitive inhibition; read-out: DPP4 Ki
Description: DPP-4 inhibitory activity of the compounds of the present invention may be determined by use of an in vitro assay system which measures the degree in inhibition of DPP-4-mediated cleavage of an appropriate substrate or pseudo-substrate. Inhibition constants (Ki values) for the DPP-4 inhibitors of the invention may be determined by the method described in the experimental section below.
To generate human DPP-4, PCR (Red-tag polymerase, Sigma) was performed on Human cDNA from placenta (Clontech) using two primers, […] (SEQ ID NO:1) and […] (SEQ ID NO:2), based on the nucleotide sequence of the human clone (accession number M74777). PCR products were cloned into the pcDN4/HisMax TOPO vector (Invitrogene). For stable transfection of CHO-DG44 cells, DPP4 was rePCRed using primers […] (SEQ ID NO:3) and […] (SEQ ID NO:4) to generate KpnI and XhoI sites. The KpnI and XhoI sites were used to extract the N-terminal His tagged gene. The His tag, which could be cleaved and removed by Enterokinase, was included to allow purification using the TALON affinity column. The gene was then ligated into the KpnI and XhoI sites of the pD16 vector for stable transfection. Stable cell lines were generated by transfecting the expression vector into Chinese hamster ovary (CHO-DG44) cells using electroporation. The CHO-DG44 cell line was grown in PFCHO media supplemented with HT (glycine, hypoxanthine and thymidine, Invitrogene), glutamine and Recombulin (ICN). Then 1×10^7 cells/ml were collected, transfected with 60 μg of DNA using electroporation at 300V, and then transferred to a T75 flask. On the third day following transfection, the HT supplement was removed and selection was initiated with methotrexate (MTX, 10 nM, ICN). After a further 10 days the cells were plated into individual wells of 96 well plates. Every 10 days the concentration of MTX was increased two to three fold, up to a maximum of 400 nM. Final stable cell line selection was based on yield and activity of the expressed protein.
An attempt to purify recombinant DPP-4 using Talon resin was not efficient, resulting in small yields, with most of the DPP activity passing through the column. Therefore, protein was further purified using conventional anion exchange (Sepharose Q), gel filtration (S-200) and high resolution MonoQ columns. The final protein yielded a single band on SDS-PAGE gels. Amino acid sequence analysis indicated two populations of DPP-4 in the sample. One portion of the protein had 27 amino acids truncated from the N-terminus, while the other was lacking the N-terminal 37 amino acids. […] Total protein concentration was measured using the Bradford dye method and the amount of the active DPP-4 was determined by titrating the enzyme with a previously characterized inhibitor (Ki=0.4 nM).
Inhibition of human DPP-4 activity was measured under steady-state conditions by following the absorbance increase at 405 nm upon the cleavage of the pseudosubstrate, Gly-Pro-pNA. Assays were performed in 96-well plates using a Thermomax plate reader. […] To ensure steady-state conditions for slow-binding inhibitors, enzyme was preincubated with the compound for 40 minutes prior to substrate addition, to initiate the reaction.
Inhibitor potency was evaluated by fitting inhibition data to the binding isotherm:
[formula] where vi is the initial reaction velocity at different concentrations of inhibitor I; v is the control velocity in the absence of inhibitor, range is the difference between the uninhibited velocity and background; background is the rate of spontaneous substrate hydrolysis in the absent of enzyme, n is the Hill coefficient.
Calculated IC50s at each substrate concentration were converted to Ki assuming competitive inhibition according to:
All inhibitors were competitive as judged by a very good agreement of Ki values obtained from the assays at high and low substrate concentrations. […]

Compound	pKi
COCCN1CCc2nc(C)c(CN)c(-c3ccc(Cl)cc3Cl)c2C1=O [Example 15, 3-(Aminomethyl)-4-(2,4-dichlorophenyl)-6-(2-methoxyethyl)-2-methyl-7,8-dihydro-1,6-naphthyridin-5(6H)-one TFA salt]	8.27
Cc1nc2c(c(-c3ccc(Cl)cc3Cl)c1CN)C(=O)NC(=O)C2 [Example 19, 3-(Aminomethyl)-4-(2,4-dichlorophenyl)-2-methyl-1,6-naphthyridine-5,7(6H,8H)-dione TFA Salt]	8.03
Cc1nc2c(c(-c3ccc(Cl)cc3Cl)c1CN)C(=O)N(CC(=O)N(C)C)CC2 (single isomer, unassigned) [Example 4, TFA salt]	7.40
Cc1nc2c(c(-c3ccccc3Cl)c1CN)C(=O)N(CC(=O)N(C)C)CC2 (single isomer, unassigned) [Example 3, TFA salt]	7.42
Cc1nc2c(c(-c3ccc(Cl)cc3Cl)c1CN)C(=O)N(CC(=O)N1CCOCC1)CC2 [Example 12, (S)-3-(Aminomethyl)-4-(2,4-dichlorophenyl)-2-methyl-6-(2-morpholino-2-oxoethyl)-7,8-dihydro-1,6-naphthyridin-5(6H)-one TFA salt]	8.35
Cc1nc2c(c(-c3ccc(Cl)cc3Cl)c1CN)C(=O)N(CC(=O)N1CCCC1)CC2 [Example 9, (S)-3-(Aminomethyl)-4-(2,4-dichlorophenyl)-2-methyl-6-(2-oxo-2-(pyrrolidin-1-yl)ethyl)-7,8-dihydro-1,6-naphthyridin-5(6H)-one TFA salt]	8.46
Cc1nc2c(c(-c3ccc(Cl)cc3Cl)c1CN)C(=O)N(c1ccccc1)CC2 [Example 17, 3-(Aminomethyl)-4-(2,4-dichlorophenyl)-2-methyl-6-phenyl-7,8-dihydro-1,6-naphthyridin-5(6H)-one TFA salt]	8.30
Cc1nc2c(c(-c3ccc(Cl)cc3Cl)c1CN)C(=O)N(CC(=O)N1CCCCC1)CC2 [Example 10, (S)-3-(Aminomethyl)-4-(2,4-dichlorophenyl)-2-methyl-6-(2-oxo-2-(piperidin-1-yl)ethyl)-7,8-dihydro-1,6-naphthyridin-5(6H)-one TFA salt]	8.41
COc1ccccc1N1CCc2nc(C)c(CN)c(-c3ccc(Cl)cc3Cl)c2C1=O [Example 18, 3-(Aminomethyl)-4-(2,4-dichlorophenyl)-6-(2-methoxyphenyl)-2-methyl-7,8-dihydro-1,6-naphthyridin-5(6H)-one TFA Salt]	8.64
Cc1nc2c(c(-c3ccc(Cl)cc3Cl)c1CN)C(=O)N(C[C@@H]1CCCO1)CC2 [Example 14, 3-(Aminomethyl)-4-(2,4-dichlorophenyl)-2-methyl-6-(((S)-tetrahydrofuran-2-yl)methyl)-7,8-dihydro-1,6-naphthyridin-5(6H)-one TFA salt]	8.23
Cc1nc2c(c(-c3ccc(Cl)cc3Cl)c1CN)C(=O)NCC2 [Example 1, 3-(Aminomethyl)-4-(2,4-dichlorophenyl)-2-methyl-7,8-dihydro-1,6-naphthyridin-5(6H)-one HCl salt]	8.16
Cc1nc2c(c(-c3ccc(Cl)cc3Cl)c1CN)C(=O)N(CC(=O)N(C)C)CC2 (single isomer, unassigned) [Example 2, TFA salt]	8.70
Cc1nc2c(c(-c3ccc(Cl)cc3Cl)c1CN)C(=O)N(CC(=O)N1CCC(N3CCCCC3=O)CC1)CC2 [Example 11, (S)-3-(Aminomethyl)-4-(2,4-dichlorophenyl)-2-methyl-6-(2-oxo-2-(2-oxo-1,4′-bipiperidin-1′-yl)ethyl)-7,8-dihydro-1,6-naphthyridin-5(6H)-one TFA salt]	7.31
Cc1nc2c(c(-c3ccc(Cl)cc3Cl)c1CN)C(=O)N(CC(N)=O)CC2 [Example 6, (S)-2-(3-(Aminomethyl)-4-(2,4-dichlorophenyl)-2-methyl-5-oxo-7,8-dihydro-1,6-naphthyridin-6(5H)-yl)acetamide TFA salt]	8.46
Cc1nc2c(c(-c3ccc(Cl)cc3Cl)c1CN)C(=O)N(C)CC2 [Example 13, 3-(Aminomethyl)-4-(2,4-dichlorophenyl)-2,6-dimethyl-7,8-dihydro-1,6-naphthyridin-5(6H)-one TFA salt]	8.11
Cc1nc2c(c(-c3ccccc3Cl)c1CN)C(=O)N(CC(=O)N(C)C)CC2 (single isomer, unassigned) [Example 5, TFA Salt]	< 7.00
Cc1nc2c(c(-c3ccc(Cl)cc3Cl)c1CN)C(=O)N(CCO)CC2 [Example 16, 3-(Aminomethyl)-4-(2,4-dichlorophenyl)-6-(2-hydroxyethyl)-2-methyl-7,8-dihydro-1,6-naphthyridin-5(6H)-one TFA salt]	7.74
CCN(CC)C(=O)CN1CCc2nc(C)c(CN)c(-c3ccc(Cl)cc3Cl)c2C1=O [Example 8, (S)-2-(3-(Aminomethyl)-4-(2,4-dichlorophenyl)-2-methyl-5-oxo-7,8-dihydro-1,6-naphthyridin-6(5H)-yl)-N,N-diethylacetamide TFA salt]	8.42
